# Like-named read-outs stand apart in the source and are kept apart here.
# Columns and labels:
# [1] = rat model of hyperoxaluria; cited from earlier work
# [2] = cited from earlier work
# [3] = Ethylene glycol (EG) rat model of experimental hyperoxaluria; type: in vivo; settings: rats given EG […] solution in drinking water; predicted result
# Source text: Both compounds are precursors of oxalate synthesis and their administration results in increased urinary oxalate concentration. […] The use of two different models also helps to minimize possible model-specific adverse effects. […] The results for Day-14 oxalate are known by Day 15, at which time the animals within each group (Control, EG) are pair-matched according to their Day-14 oxalate. The pyridoxamine and no-pyridoxamine groups therefore begin the pyridoxamine-treatment period with nearly identical mean and standard deviation oxalate excretion, which optimizes the sensitivity of this experimental design.
# oxalate oxidase = target: T1, oxalate oxidase (Hordeum vulgare, UniProt P45850); assay: Interference of pyridoxamine with urinary oxalate determination by oxalate oxidase method; design: species or system Barley; settings: pyridoxamine added to assay mixtures, final concentration 2 mg/ml
# T1 construct: Oxalate oxidase from Barley seedlings was purchased from Sigma Co; purchased Sigma Co. (St. Louis, Mo.); host or cells: barley seedlings (natural source)
# T1 sequence (P45850 1-201): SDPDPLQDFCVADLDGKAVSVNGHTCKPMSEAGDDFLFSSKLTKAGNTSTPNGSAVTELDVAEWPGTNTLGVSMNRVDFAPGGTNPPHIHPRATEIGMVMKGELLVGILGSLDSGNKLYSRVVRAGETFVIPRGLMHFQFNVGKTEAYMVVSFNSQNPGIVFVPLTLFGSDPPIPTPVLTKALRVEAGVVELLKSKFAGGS
# Experimental: Twenty-four hour urine samples were collected under toluene (to inhibit bacterial growth) using containers with 2 M hydrochloric acid to minimize spontaneous breakdown of urinary ascorbic acid to oxalate (21). The urine samples were stored at −70° C. until further analysis. […] Collected urine samples were analyzed to determine concentrations of oxalate using the oxalate oxidase method (23). This assay is highly specific and sensitive to about 10 μM (23). […] The method is based on the conversion of oxalate to hydrogen peroxide and carbon dioxide by oxalate oxidase. The latter was determined enzymatically with horseradish peroxidase by oxidative coupling of 3-methyl-2-benzothiazolinone hydrazone with N,N-dimethylaniline. The resulting colored product was determined spectrophotometrically at 595 nm. The modified sample preparation procedure was used, which replaces column chromatography with a simple precipitation step (24).
# [4] = diabetic rat model, 7 months, same dose; cited from earlier work
# [5] = Urinary oxalate excretion in pyridoxamine-treated rats (oxalate oxidase method); type: in vivo, Sprague-Dawley rats; settings: pyridoxamine in drinking water, 1.2 μm/day/gram body weight
# Experimental: (§1) Two month old Sprague-Dawley rats were housed individually in metabolic cages and fed standard powdered stock rations. […] To minimize possible chemical degradation of pyridoxamine, fresh solutions were prepared daily and administered in water bottles wrapped in aluminum foil.
# Twenty-four hour urine samples were collected under toluene (to inhibit bacterial growth) using containers with 2 M hydrochloric acid to minimize spontaneous breakdown of urinary ascorbic acid to oxalate (21). The urine samples were stored at −70° C. until further analysis. Under these conditions, frozen urine can be stored for at least 1 month with no effect on oxalate measurements (22). Collected urine samples were analyzed to determine concentrations of oxalate using the oxalate oxidase method (23). This assay is highly specific and sensitive to about 10 μM (23). Oxalate oxidase from Barley seedlings was purchased from Sigma Co. (St. Louis, Mo.). The method is based on the conversion of oxalate to hydrogen peroxide and carbon dioxide by oxalate oxidase. […] was determined enzymatically with horseradish peroxidase by oxidative coupling of 3-methyl-2-benzothiazolinone hydrazone with N,N-dimethylaniline. The resulting colored product was determined spectrophotometrically at 595 nm. The modified sample preparation procedure was used, which replaces column chromatography with a simple precipitation step (24).
# [6] = Body weight, behavior and water consumption of pyridoxamine-treated rats; type: in vivo, Sprague-Dawley rats
# Experimental: as §1
# [7] = cited from earlier work; remark: listed apart in the source
compound,measurement,setting,value
"O=C1N[C@H](C(=O)O)CS1 [OTZ, (L)-2-oxothiazolidine-4-carboxylate]",urinary oxalate concentration,[1],decrease
same,urinary oxalate levels,[2]; normal individuals,decreased
same,adverse effects,"[2]; patients, administered for only 48 hours",mild to moderate adverse effects
"Cc1ncc(CO)c(CN)c1O.Cl.Cl [pyridoxamine, Pyridoxamine dihydrochloride]",oxalate excretion,[3],significantly reduce
same,effect on oxalate measurements,oxalate oxidase,no effect
same,therapeutic effect of the dose,[4],had therapeutic effects
same,statistical significance of the urinary oxalate difference from controls,[5],statistically different from controls after 12 days
same,urinary oxalate levels versus controls,[5],consistently lower
same,general behavior versus control group,[6],no difference
same,weight gain versus control group,[6],no difference
same,Weight,[6]; Day 1,315 ± 6 grams
same,Weight,[6]; Day 26,363 ± 16 grams
Cc1ncc(CO)c(CO)c1O [pyridoxine],urinary oxalate levels,"[7]; stone formers, 200 mg daily",did not reduce
same,risk of kidney stone formation,"[7]; women, 40 mg/day",reduced risk
